Active and inactive are the calls of the source. The rule behind the calls is not given here.
How the values were obtained:
[1] = (§1) Half life in human liver microsomes by in vitro metabolic stability assay; type: ADME, Microsome; conditions: liver microsomes
[2] = Half life in mouse liver microsomes by in vitro metabolic stability assay; type: ADME, Microsome; conditions: for half-life: liver microsomes; for t1/2: microsomes
[3] = target: Sodium-dependent serotonin transporter (Homo sapiens, UniProt P31645); type: cell-based, LLC-PK1
[4] = target: Sodium-dependent dopamine transporter (Homo sapiens, UniProt Q01959); type: cell-based, COS-7
[5] = target: Sodium-dependent noradrenaline transporter (Homo sapiens, UniProt P23975)
Cytochrome P450 2D6 = Cytochrome P450 2D6 (Homo sapiens, UniProt P10635); test: Inhibition of CYP2D6; type: ADME
Cytochrome P450 3A4 = Cytochrome P450 3A4 (Homo sapiens, UniProt P08684); test: Inhibition of CYP3A4; type: ADME
Cytochrome P450 2C19 = Cytochrome P450 2C19 (Homo sapiens, UniProt P33261); test: Inhibition of CYP2C19; type: ADME
[6] = Inhibition of CYP1A; type: ADME
Cytochrome P450 2C9 = Cytochrome P450 2C9 (Homo sapiens, UniProt P11712); test: Inhibition of CYP2C9; type: ADME
Mus musculus [7] = test: Antidepressant activity in mouse assessed as reduction in immobility duration pretreated 30 mins before at 30 mg/kg, po by tail suspension test; type: functional; set-up: scale not given: the % may be the effect or the level left
Mus musculus [8] = test: Antidepressant activity in mouse assessed as reduction in immobility duration pretreated 30 mins before at 100 mg/kg, po by tail suspension test; type: functional; set-up: scale not given: the % may be the effect or the level left
[9] = target: T1, Voltage-gated inwardly rectifying potassium channel KCNH2 (Homo sapiens, UniProt Q12809)
Mus musculus [10] = test: Antidepressant activity in po dosed mouse assessed as reduction of immobility duration measured by tail suspension test; type: functional, organism-based
Mus musculus [11] = test: Antidepressant activity in mouse assessed as reduction of immobility duration measured at first 5 mins time point at 10 or 30 mg/kg, po by tail suspension test; type: functional, organism-based; set-up: dose 30 mg/kg
Plasma [12] = test: Drug level in mouse plasma at 3 mg/kg, po; type: functional, organism-based; set-up: dose 3 mg/kg
Plasma [13] = test: Drug level in mouse plasma at 10 mg/kg, po; type: functional, organism-based; set-up: dose 10 mg/kg
Plasma [14] = test: Drug level in mouse plasma at 30 mg/kg, po; type: functional, organism-based; set-up: dose 30 mg/kg
Brain [15] = test: Drug level in mouse brain at 3 mg/kg, po; type: functional, organism-based; set-up: dose 3 mg/kg
Brain [16] = test: Drug level in mouse brain at 10 mg/kg, po; type: functional, organism-based; set-up: dose 10 mg/kg
Brain [17] = test: Drug level in mouse brain at 30 mg/kg, po; type: functional, organism-based; set-up: dose 30 mg/kg
Liver microsomes = test: as §1; type: ADME, Microsome; conditions: microsomes
[18] = target: T1, Voltage-gated inwardly rectifying potassium channel KCNH2; remark: listed apart in the source
Mus musculus [19] = test: Antidepressant activity in mouse assessed as reduction in immobility duration pretreated 30 mins before at 10 mg/kg, po by tail suspension test; type: functional; set-up: scale not given: the % may be the effect or the level left

T1 sequence (Q12809 whole entry): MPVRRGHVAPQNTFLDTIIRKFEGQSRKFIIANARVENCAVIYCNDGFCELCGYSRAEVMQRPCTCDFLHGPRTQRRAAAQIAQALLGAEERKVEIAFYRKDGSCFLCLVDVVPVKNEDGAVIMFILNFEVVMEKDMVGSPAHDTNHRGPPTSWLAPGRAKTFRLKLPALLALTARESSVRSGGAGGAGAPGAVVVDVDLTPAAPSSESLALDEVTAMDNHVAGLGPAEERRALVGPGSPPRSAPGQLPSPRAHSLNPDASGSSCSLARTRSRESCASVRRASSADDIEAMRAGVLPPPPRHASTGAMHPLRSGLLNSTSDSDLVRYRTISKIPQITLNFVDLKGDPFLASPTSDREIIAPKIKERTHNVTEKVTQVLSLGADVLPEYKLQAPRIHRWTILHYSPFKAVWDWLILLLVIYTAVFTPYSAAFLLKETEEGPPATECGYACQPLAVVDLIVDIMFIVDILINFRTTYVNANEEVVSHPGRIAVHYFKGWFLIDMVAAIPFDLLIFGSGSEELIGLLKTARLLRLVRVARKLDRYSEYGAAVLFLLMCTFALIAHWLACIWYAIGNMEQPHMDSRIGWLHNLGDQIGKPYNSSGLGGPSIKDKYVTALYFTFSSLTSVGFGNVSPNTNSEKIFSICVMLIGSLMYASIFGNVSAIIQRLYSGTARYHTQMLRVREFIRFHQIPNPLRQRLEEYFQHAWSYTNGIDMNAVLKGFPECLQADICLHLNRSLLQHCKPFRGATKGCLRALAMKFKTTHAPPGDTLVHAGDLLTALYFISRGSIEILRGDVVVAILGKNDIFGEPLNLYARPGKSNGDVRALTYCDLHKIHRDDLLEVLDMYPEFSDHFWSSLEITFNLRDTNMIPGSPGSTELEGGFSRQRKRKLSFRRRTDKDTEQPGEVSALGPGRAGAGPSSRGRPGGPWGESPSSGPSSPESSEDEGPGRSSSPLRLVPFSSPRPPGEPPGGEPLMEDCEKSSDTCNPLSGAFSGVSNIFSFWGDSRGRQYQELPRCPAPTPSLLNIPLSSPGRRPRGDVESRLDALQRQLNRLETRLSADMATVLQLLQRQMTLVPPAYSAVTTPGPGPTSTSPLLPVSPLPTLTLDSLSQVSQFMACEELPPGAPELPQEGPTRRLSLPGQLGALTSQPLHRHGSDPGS
Sequence of Cytochrome P450 2D6 (P10635 whole entry): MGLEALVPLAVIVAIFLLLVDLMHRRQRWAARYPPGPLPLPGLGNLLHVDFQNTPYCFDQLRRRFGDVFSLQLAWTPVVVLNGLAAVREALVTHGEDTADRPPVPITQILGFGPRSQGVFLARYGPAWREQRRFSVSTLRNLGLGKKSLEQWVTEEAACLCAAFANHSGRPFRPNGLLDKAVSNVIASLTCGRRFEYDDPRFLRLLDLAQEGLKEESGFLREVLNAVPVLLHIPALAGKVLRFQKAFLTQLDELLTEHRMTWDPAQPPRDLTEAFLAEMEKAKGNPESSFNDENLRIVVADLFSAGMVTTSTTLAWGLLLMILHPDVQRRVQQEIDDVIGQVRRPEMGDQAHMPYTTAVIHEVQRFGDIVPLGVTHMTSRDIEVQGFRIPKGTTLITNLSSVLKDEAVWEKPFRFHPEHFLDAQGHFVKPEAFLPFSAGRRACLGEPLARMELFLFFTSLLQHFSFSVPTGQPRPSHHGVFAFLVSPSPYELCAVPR
Sequence of Cytochrome P450 3A4 (P08684 whole entry): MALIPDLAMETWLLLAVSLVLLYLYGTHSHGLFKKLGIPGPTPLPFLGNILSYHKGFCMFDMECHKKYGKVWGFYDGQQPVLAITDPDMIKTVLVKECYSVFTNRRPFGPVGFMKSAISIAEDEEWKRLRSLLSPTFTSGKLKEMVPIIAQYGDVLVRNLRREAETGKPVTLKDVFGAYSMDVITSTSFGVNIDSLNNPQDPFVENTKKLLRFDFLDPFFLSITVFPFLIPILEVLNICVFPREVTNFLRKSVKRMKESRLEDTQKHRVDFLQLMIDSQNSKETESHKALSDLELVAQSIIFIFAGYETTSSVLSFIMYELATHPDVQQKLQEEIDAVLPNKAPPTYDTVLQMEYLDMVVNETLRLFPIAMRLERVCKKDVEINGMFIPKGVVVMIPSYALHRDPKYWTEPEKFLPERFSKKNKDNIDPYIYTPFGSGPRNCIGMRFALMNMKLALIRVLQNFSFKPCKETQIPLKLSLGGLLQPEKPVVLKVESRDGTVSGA
Sequence of Cytochrome P450 2C9 (P11712 whole entry): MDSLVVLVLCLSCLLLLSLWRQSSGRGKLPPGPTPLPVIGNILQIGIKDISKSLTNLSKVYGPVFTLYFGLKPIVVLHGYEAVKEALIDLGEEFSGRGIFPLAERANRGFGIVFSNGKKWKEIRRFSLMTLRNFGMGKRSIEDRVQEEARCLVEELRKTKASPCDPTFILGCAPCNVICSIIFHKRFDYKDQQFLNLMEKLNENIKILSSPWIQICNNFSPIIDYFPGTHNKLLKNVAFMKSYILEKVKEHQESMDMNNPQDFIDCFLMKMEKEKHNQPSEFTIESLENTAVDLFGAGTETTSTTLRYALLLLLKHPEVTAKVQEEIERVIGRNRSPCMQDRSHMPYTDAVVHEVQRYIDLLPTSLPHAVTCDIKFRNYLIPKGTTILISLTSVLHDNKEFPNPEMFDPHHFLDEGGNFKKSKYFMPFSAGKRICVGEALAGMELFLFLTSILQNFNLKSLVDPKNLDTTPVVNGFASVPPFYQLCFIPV
Sequence of Cytochrome P450 2C19 (P33261 whole entry): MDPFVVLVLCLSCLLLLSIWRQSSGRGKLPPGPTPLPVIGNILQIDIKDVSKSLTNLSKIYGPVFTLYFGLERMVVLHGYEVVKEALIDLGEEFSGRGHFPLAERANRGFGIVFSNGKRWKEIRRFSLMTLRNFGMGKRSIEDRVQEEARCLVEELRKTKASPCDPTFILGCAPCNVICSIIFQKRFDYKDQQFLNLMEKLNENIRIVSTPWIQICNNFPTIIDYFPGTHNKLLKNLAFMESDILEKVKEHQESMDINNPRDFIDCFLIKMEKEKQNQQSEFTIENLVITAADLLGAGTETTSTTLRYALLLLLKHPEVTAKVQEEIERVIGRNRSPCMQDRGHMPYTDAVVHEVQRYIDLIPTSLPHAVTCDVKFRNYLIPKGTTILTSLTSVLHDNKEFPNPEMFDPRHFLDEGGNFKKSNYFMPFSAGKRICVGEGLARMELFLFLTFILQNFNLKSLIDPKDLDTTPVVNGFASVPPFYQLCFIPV
Sequence of Sodium-dependent serotonin transporter (P31645 whole entry): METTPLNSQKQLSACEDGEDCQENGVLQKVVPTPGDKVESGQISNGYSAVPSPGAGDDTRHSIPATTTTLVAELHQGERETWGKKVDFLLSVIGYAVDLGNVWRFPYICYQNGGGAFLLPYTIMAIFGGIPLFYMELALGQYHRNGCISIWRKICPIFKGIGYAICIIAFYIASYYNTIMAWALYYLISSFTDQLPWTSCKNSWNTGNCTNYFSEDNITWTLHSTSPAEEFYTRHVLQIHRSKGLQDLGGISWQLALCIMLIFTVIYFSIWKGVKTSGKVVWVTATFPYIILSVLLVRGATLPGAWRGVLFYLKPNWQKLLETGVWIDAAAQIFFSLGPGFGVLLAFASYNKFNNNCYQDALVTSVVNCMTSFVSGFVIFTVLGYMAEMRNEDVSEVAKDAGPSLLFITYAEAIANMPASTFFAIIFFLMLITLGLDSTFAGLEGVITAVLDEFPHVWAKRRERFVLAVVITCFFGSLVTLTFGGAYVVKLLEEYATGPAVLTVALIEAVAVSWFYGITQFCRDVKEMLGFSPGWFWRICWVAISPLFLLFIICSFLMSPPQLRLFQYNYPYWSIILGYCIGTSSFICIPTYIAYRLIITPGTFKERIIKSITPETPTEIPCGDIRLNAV
Sequence of Sodium-dependent dopamine transporter (Q01959 whole entry): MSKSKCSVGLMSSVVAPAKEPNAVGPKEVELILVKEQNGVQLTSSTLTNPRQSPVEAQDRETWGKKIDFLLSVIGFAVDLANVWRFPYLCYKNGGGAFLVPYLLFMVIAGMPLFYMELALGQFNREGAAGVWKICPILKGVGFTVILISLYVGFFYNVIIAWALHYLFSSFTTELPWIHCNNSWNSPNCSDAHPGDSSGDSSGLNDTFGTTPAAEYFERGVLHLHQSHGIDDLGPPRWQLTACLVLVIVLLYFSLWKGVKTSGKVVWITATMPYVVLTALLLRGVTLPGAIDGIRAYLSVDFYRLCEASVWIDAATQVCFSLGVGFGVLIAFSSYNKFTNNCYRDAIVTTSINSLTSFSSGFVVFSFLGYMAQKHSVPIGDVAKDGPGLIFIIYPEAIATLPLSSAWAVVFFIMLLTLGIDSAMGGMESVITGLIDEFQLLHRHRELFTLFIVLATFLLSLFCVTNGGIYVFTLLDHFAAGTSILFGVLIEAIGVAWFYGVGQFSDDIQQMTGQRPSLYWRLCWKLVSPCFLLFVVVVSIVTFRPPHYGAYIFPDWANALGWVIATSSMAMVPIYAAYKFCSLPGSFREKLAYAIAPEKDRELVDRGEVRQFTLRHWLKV
Sequence of Sodium-dependent noradrenaline transporter (P23975 whole entry): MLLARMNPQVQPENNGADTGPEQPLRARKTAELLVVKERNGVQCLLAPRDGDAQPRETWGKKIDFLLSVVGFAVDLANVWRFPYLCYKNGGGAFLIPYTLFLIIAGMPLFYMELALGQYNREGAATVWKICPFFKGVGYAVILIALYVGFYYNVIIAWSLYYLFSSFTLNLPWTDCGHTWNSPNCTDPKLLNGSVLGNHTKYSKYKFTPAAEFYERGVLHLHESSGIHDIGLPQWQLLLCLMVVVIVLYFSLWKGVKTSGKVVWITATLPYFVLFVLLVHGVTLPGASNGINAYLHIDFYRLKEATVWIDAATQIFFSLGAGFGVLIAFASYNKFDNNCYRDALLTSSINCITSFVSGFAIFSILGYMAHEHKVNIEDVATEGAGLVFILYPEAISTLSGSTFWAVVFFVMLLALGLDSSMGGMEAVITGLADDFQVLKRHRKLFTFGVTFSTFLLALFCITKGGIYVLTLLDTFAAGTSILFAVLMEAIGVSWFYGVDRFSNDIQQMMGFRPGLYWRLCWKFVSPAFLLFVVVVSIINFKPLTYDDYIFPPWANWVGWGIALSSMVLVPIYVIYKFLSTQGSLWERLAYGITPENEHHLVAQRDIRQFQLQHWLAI

CC(N)C1(c2cccc3ccccc23)CCCCC1 (configuration not stated)
half-life [1]: > 300 min
half-life [2]: 80 min

CC(N)C1(c2ccc(OC(F)(F)F)cc2)CCCCC1 (configuration not stated)
IC50 [3]: 0.11 µM
half-life [1]: > 300 min
half-life [2]: 100 min

CC(N)C1(c2ccc(OC(C)(C)C)cc2)CCCCC1 (configuration not stated)
IC50 [3]: 7.1 µM
IC50 [4]: 1.52 µM
IC50 [5]: 5 µM

CC(N)C1(c2cccs2)CCCCC1 (configuration not stated)
half-life [1]: 152 min
half-life [2]: 137 min

CC(N)C1(c2ccc(-c3ccccc3)cc2)CCCCC1 (configuration not stated)
half-life [1]: 248 min
half-life [2]: 40 min

CC(N(C)C)C1(c2ccc(Cl)c(Cl)c2)CCCCC1.Cl (configuration not stated)
IC50 (Cytochrome P450 2D6): > 25 µM
IC50 (Cytochrome P450 3A4): > 25 µM
IC50 (Cytochrome P450 2C19): > 25 µM
IC50 [6]: > 25 µM
IC50 (Cytochrome P450 2C9): > 25 µM
Activity (Mus musculus [7]): 39%
Activity (Mus musculus [8]): 27%
IC50 [9]: 40 µM

CC(N(C)C)C1(c2ccc(Cl)c(Cl)c2)CCCCC1 (configuration not stated)
Activity (Mus musculus [10]): Dose-dependent effect
Activity (Mus musculus [11]): inactive
Cp (Plasma [12]): 2 ng/mL
Cp (Plasma [13]): 12 ng/mL
Cp (Plasma [14]): 103 ng/mL
Drug uptake (Brain [15]): 19 ng/g
Drug uptake (Brain [16]): 114 ng/g
Drug uptake (Brain [17]): 845 ng/g

CC(N)C1(c2ccc(Cl)c(Cl)c2)CCCCC1 (racemic)
half-life [1]: > 300 min
t1/2 [2]: 163 min

CCC(N)C1(c2ccc(Cl)c(Cl)c2)CCCCC1 (racemic)
half-life [1]: 96 min
half-life [2]: 56 min

CC(C)CC(N)C1(c2ccc(Cl)c(Cl)c2)CCCCC1 (racemic)
half-life [1]: 83 min
half-life [2]: 59 min

CNC(C)C1(c2ccc(Cl)c(Cl)c2)CCCCC1 (racemic)
t1/2 (Liver microsomes): 281 min
t1/2 [2]: 154 min

CNC(CC(C)C)C1(c2ccc(Cl)c(Cl)c2)CCCCC1 (racemic)
half-life [1]: 23 min
half-life [2]: 18 min

CC(N(C)C)C1(c2ccc(Cl)c(Cl)c2)CCCCC1 (racemic)
half-life [1]: 23 min
half-life [2]: 22 min

CC(C)CC(N(C)C)C1(c2ccc(Cl)c(Cl)c2)CCCCC1 (racemic)
half-life [1]: 18 min
half-life [2]: > 300 min

CC(N)C1(c2ccc3ccccc3c2)CCCCC1 (racemic)
half-life [1]: 140 min
half-life [2]: 16 min

CC(N(C)C)C1(c2ccc3ccccc3c2)CCCCC1 (racemic)
half-life [1]: 33 min
half-life [2]: 22 min

CNC(C)C1(c2ccc(Cl)c(Cl)c2)CCCCC1 (single isomer, unassigned)
t1/2 (Liver microsomes): 71 min
t1/2 [2]: 54 min

CC(N(C)C)C1(c2ccc(Cl)c(Cl)c2)CCCCC1 (single isomer, unassigned)
t1/2 [2]: 28 min

CC(N)C1(c2ccc3ccccc3c2)CCCCC1 (single isomer, unassigned)
t1/2 (Liver microsomes): 150 min
t1/2 [2]: 11 min

CC(N)C1(c2ccc(Cl)c(Cl)c2)CCCCC1 (single isomer, unassigned; enantiomer 1)
t1/2 [2]: 84 min

CC(N(C)C)C1(c2ccc(Cl)c(Cl)c2)CCCCC1 (single isomer, unassigned; enantiomer 1)
t1/2 (Liver microsomes): 28 min
t1/2 [2]: 25 min
IC50 [18]: 40 µM

CC(N)C1(c2ccc3ccccc3c2)CCCCC1 (single isomer, unassigned; enantiomer 2)
t1/2 (Liver microsomes): 164 min
t1/2 [2]: 14 min

CC(N(C)C)C1(c2ccc3ccccc3c2)CCCCC1 (single isomer, unassigned; enantiomer 2)
t1/2 [2]: 23 min

CNC(C)C1(c2ccc3ccccc3c2)CCCCC1 (single isomer, unassigned; enantiomer 2)
t1/2 (Liver microsomes): 101 min
t1/2 [2]: 11 min

CNC(C)C1(c2ccc(Cl)c(Cl)c2)CCCCC1.Cl (single isomer, unassigned; enantiomer 2)
IC50 (Cytochrome P450 2D6): 8.5 µM
IC50 [6]: > 25 µM
Activity (Mus musculus [19]): 13%
Activity (Mus musculus [7]): 3.3%
Activity (Mus musculus [8]): 25%

CNC(C)C1(c2ccc(Cl)c(Cl)c2)CCCCC1 (single isomer, unassigned; enantiomer 2)
Activity (Mus musculus [10]): Dose-dependent effect
Activity (Mus musculus [11]): inactive
Cp (Plasma [12]): 9 ng/mL
Cp (Plasma [13]): 44 ng/mL
Cp (Plasma [14]): 544 ng/mL
Drug uptake (Brain [15]): 145 ng/g
Drug uptake (Brain [16]): 782 ng/g
Drug uptake (Brain [17]): 7070 ng/g

CC(N(C)C)C1(c2ccc3ccccc3c2)CCCCC1 (single isomer, unassigned; form 1)
t1/2 (Liver microsomes): 32 min
t1/2 [2]: 19 min
IC50 [18]: 4.3 µM

CC(N(C)C)C1(c2ccc3ccccc3c2)CCCCC1.Cl (single isomer, unassigned; form 2)
IC50 (Cytochrome P450 2D6): > 5 µM
IC50 (Cytochrome P450 3A4): > 5 µM
IC50 (Cytochrome P450 2C19): > 5 µM
IC50 [6]: > 25 µM
IC50 (Cytochrome P450 2C9): > 5 µM
Activity (Mus musculus [19]): 14%
Activity (Mus musculus [7]): 30%
Activity (Mus musculus [8]): 37%
IC50 [9]: 4.3 µM

CC(N(C)C)C1(c2ccc3ccccc3c2)CCCCC1 (single isomer, unassigned; form 2)
Activity (Mus musculus [10]): Dose-dependent effect
Activity (Mus musculus [11]): inactive
Cp (Plasma [12]): 2 ng/mL
Cp (Plasma [13]): 13 ng/mL
Cp (Plasma [14]): 68 ng/mL
Drug uptake (Brain [15]): 25 ng/g
Drug uptake (Brain [16]): 130 ng/g
Drug uptake (Brain [17]): 564 ng/g

CNC(C)C1(c2ccc(Cl)c(Cl)c2)CCCCC1 (stereo in doubt; 24)
t1/2 (Liver microsomes): 53 min
t1/2 [2]: 52 min

CNC(C)C1(c2ccc3ccccc3c2)CCCCC1 (stereo in doubt; 29)
half-life [1]: 90 min
half-life [2]: 12 min
